Reference: patent US9446066B2, “Methods for reducing pulmonary uptake of intravenously injected cells” (priority 2010, dated 2016)
Where “and” joins values, the source holds several entries; their conditions need not be identical. Equal entries are not always repeated.

Columns and labels:
Porcine T-lymphoblasts = test: T-lymphoblast labeling and in vitro retention of [18F]FDG; type: cell-based; settings: mono-exponential fit, R^2=0.99; 6 time points over 120 minutes
Description: (§1) [^18F]FDG (t1/2=109.8 min) was prepared according to standard procedures (TRACERIab FxFDG, GE Medical Systems, USA). Cells were incubated with [^18F]FDG in 7-10 mL PBS for 60 minutes at 37° C. before being washed to remove excess radioactivity.
The retention (the rate of tracer washout through GLUTs after dephosphorylation of [^18F]FDG-6P) was measured in triplicates at 6 different time points over 120 minutes and the retention half-life was estimated by fitting the data to a mono-exponential curve.

[1] = human patients, following an administration of dextran sulfate; cited from earlier work
T-lymphoblasts = test: PET-examination of lung uptake and distribution of transfused [18F]FDG-labeled T-lymphoblasts; type: in vivo, pig; settings: for pulmonary uptake of T-lymphoblasts compared to intravenous administration alone (in words): pre-incubation and intravenous co-administration with dextran sulfate
Description: In this study we present a method to monitor transfusion of T-lymphoblasts in vivo in a porcine model by PET-imaging. Porcine T-lymphoblasts were labeled with [^18F]FDG prior to administration, and the kinetics and bio-distribution of the cells was monitored for up to 2 hours. [^18F]FDG is a functional analogue to glucose, but cannot be metabolized further than the initial phosphorylation by hexokinase and is trapped in the cell cytoplasm. The same concept has been applied by our group to image transplantation of islets of Langerhans in a porcine model and in the clinical setting.
In the present work, three modes of administration were compared; intravenous administration with or without co-administration of the complement and coagulatory inhibitor low molecular weight dextran sulphate (LMW-DS), and intraarterial administration.
Spleens from three months old pigs were surgically resected and stored in PBS for immediate preparation. Spleens were cut into smaller fragments and mashed first against a 1 mm steel mesh and a second time with a syringe rubber plunger against a fine nylon mesh. The tissue was resuspended in PBS and the T-lymphoblasts were isolated using Ficoll-Paque (GE-Healthcare Uppsala, Sweden) density gradient centrifugation. All T-lymphoblasts were activated with PHA (1 μg/mL) (Invitrogen, Carlsbad, Calif., USA) to simulate the clinical setting of adoptively transferred tumor infiltrating lymphocytes.
T-lymphoblasts were suspended in 10-15 mL of PBS and administered over 10 minutes either intravenously into the internal jugular vein (n=5) or intraarterially into the ascending aorta (n=1). Two of the pigs given intravenous administration were pretreated with LMW-DS (4.5 mg/kg) (Apoteket AB, Umeå, Sweden). The T-lymphoblasts were in these two cases co-administered intravenously together with LMW-DS (9 mg/kg, followed by continuous infusion of 7.2 mg/kg/h).
as §1
Six pigs were examined by PET after administration of [^18F]FDG-labeled T-lymphoblasts. A GE Discovery ST PET/CT scanner (n=3) or a Hamamatsu SHR-7700 scanner (n=3) was used. Dynamic sequences were acquired over the lungs and liver for up to 120 minutes. The kinetic data obtained was expressed as absolute number of cells or the percentage of administered cells. Results are given as averages±SEM.
The concentration and total amount of cells trapped in lung tissue could be quantified. Table 1 presents the amount of T-lymphoblasts in the lungs at 30 minutes. Between 80 and up to 635 million cells (16 to 79% of the grafts) was trapped in lung tissue after administration. To quantify the amount of cells trapped in hotspots we defined two levels of density: hotspots with a cellular density over either 250.000 cells/cc (moderate density) or over 500.000 cells/cc (high density).

[2] = range over the two LMW-DS pigs, lungs at 30 minutes

Compound | [18F]FDG retention half-life (Porcine T-lymphoblasts) | APTT safely achieved [1] | % of cells in lungs (T-lymphoblasts; at 30 minutes, single pig) | lung uptake (% of the administered T-lymphoblasts), average (T-lymphoblasts; at completed transfusion, intravenous co-administration of LMW-DS, pretreated pigs, n=2) | pulmonary uptake of T-lymphoblasts compared to intravenous administration alone (in words) (T-lymphoblasts) | pulmonary uptake of T-lymphoblasts compared to intravenous administration alone (in words) (T-lymphoblasts; listed as dextran sulfate) | amount of cells in high density hotspots (T-lymphoblasts; [2]) | cells in high density hotspots as % of lung uptake (T-lymphoblasts; [2])
OC[C@H]1OC(O)[C@H]([18F])[C@@H](O)[C@@H]1O (stereo partly drawn) [[^18F]FDG, ^18F-2-fluoro-2-deoxy-D-glucose] | 5.32 h |  |  |  |  |  |  | 
low molecular weight dextran sulfate [LMW-DS] |  | about 250 s | 16.3% and 31.8% | 36.6% | lower | decreased | 0-111 million cells | 0-39%
